Experimental data reported in patent publication US20020137929A1, “1 - (3-heterocyclylphenyl) isothiourea, -isourea, -guanidine and -amidine herbicidal agents” (Intellectual Property Department, BASF Aktiengesellschaft, priority 1998, published 2002).

How the values were obtained:
CASOB (Sicklepod) [1] = assay: Preemergence herbicidal evaluation; assay type: in vivo, Cassia obtusifolia; conditions: preemergence, rated 4-5 weeks after treatment, 0-9 scale
Method in brief: (§1)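 Visual 0-9 rating vs control (stand, vigor, malformation, size, chlorosis, overall appearance), scored 4-5 wk after spraying. Seeded soil cups were treated preemergence with compound in aqueous acetone, ~0.0156-0.500 kg/ha equivalent.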

ZEAMX (Corn, Field) = assay: Preemergence herbicidal evaluation; assay type: in vivo, Zea mays; conditions: preemergence, rated 4-5 weeks after treatment, 0-9 scale
Method in brief: as §1

CYPIR (Rice Flatsedge) = assay: Preemergence weed control under flooded paddy conditions; assay type: in vivo, Cyperus iria; conditions: rated 3-4 weeks after treatment
Method in brief: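 Herbicidal effect is scored visually on a 0-9 scale against an untreated control, three to four weeks after compounds are pipetted into the flood water (1.5 to 3 cm deep) over seeds planted in silt loam at 0.5 cm depth. Rates: about 0.0313 to 0.500 kg/ha.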

[2] = system: CHEAL (Lambsquarters, Common); assay: Postemergence herbicidal evaluation; assay type: in vivo, Chenopodium album; conditions: postemergence
Method in brief: (§2)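 ~2-wk seedlings; postemergence spray, 40 psi; vehicle 1:1 acetone:water + 0.5% Tween 20; rate ≈0.0156–0.500 kg/ha; greenhouse hold; scored 4–5 wk after treatment, 0–9 scale vs control; repeat tests averaged.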

[3] = system: GLXMAW (Soybean, Williams); assay: Postemergence herbicidal evaluation; assay type: in vivo, Glycine max, (L.) Merr. cv Williams; conditions: postemergence
Method in brief: as §2

CYPSE (Flatsedge) [4] = assay: Postemergence weed control under flooded paddy conditions; assay type: in vivo, Cyperus serotinus; conditions: postemergence weeds, rated 3 to 4 weeks after treatment
Method in brief: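 Herbicidal effect is judged by eye on a 0–9 scale versus control, 3–4 weeks after dosing. Dosing is into flood water kept 1.5–3 cm over the soil, at about 0.0313–0.500 kg/ha in aqueous/acetone 50/50 v/v, on 3–5 cm weeds and 1.5–2.5-leaf rice seedlings.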

AMBEL (Ragweed, Common) = assay: Postemergence herbicidal evaluation; assay type: in vivo, Ambrosia artemisifolia; conditions: postemergence
Method in brief: as §2

ECHCG (Barnyardgrass) = assay: Postemergence herbicidal evaluation; assay type: in vivo, Echinochloa crus-galli; conditions: postemergence
Method in brief: as §2

ORYSAT (Rice, Tebonnet) = assay: Postemergence herbicidal evaluation; assay type: in vivo, Oryza sativa, (L.) Tebonnet; conditions: postemergence
Method in brief: as §2

GALAP (Galium) [5] = assay: Postemergence herbicidal evaluation; assay type: in vivo, Galium aparine; conditions: postemergence
Method in brief: as §2

GALAP (Galium) [6] = assay: Preemergence herbicidal evaluation; assay type: in vivo, Galium aparine; conditions: preemergence, rated 4-5 weeks after treatment, 0-9 scale
Method in brief: as §1

CYPSE (Flatsedge) [7] = assay: Preemergence weed control under flooded paddy conditions; assay type: in vivo, Cyperus serotinus; conditions: rated 3-4 weeks after treatment
Method in brief: (§3)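 Silt loam, seeds in top 0.5 cm; flood held 1.5-3 cm; test cpd as acetone/water 50/50 into flood water, ~0.0313-0.500 kg/ha a.i.; greenhouse 3-4 wk; visual 0-9 score vs control.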

CASOB (Sicklepod) [8] = assay: Postemergence herbicidal evaluation; assay type: in vivo, Cassia obtusifolia; conditions: postemergence
Method in brief: as §2

[9] = system: SAGPY (Arrowhead (Pygmaea)); assay: Preemergence weed control under flooded paddy conditions; assay type: in vivo, Sagittaria pygmaea; conditions: rated 3-4 weeks after treatment
Method in brief: as §3

SETVI (Foxtail, Green) = assay: Postemergence herbicidal evaluation; assay type: in vivo, Setaria viridis; conditions: postemergence
Method in brief: as §2

**Q.** Which results are given for `CCOC(=O)CN1C(=O)C(CC(=O)OCCF)SC1=Nc1cc(-n2c(=O)cc(C(F)(F)F)n(C)c2=O)c(F)cc1Cl` (stereo not shown) [Compound 82, 2-{{2-Chloro-5-[3,6-dihydro-3-methyl-2,6-dioxo-4-(trifluoromethyl)-1(2H)-pyrimidinyl]-4-fluoro-phenyl}imino}-4-oxo-3,5-thiazolidinediacetic acid, 3-ethyl 2-fluoroethyl ester]?
**A.** CASOB rating (CASOB (Sicklepod) [1]; 0.0156 kg/ha): 0.0; CASOB rating (CASOB (Sicklepod) [1]; 0.0313 kg/ha): 0.0; CASOB rating (CASOB (Sicklepod) [1]; 0.0625 kg/ha): 3.0; CASOB rating (CASOB (Sicklepod) [1]; 0.1250 kg/ha): 9.0; CASOB rating (CASOB (Sicklepod) [1]; 0.2500 kg/ha): 9.0; ZEAMX rating (ZEAMX (Corn, Field); 0.0156 kg/ha): 0.0; ZEAMX rating (ZEAMX (Corn, Field); 0.0313 kg/ha): 0.0; ZEAMX rating (ZEAMX (Corn, Field); 0.0625 kg/ha): 0.0; ZEAMX rating (ZEAMX (Corn, Field); 0.1250 kg/ha): 0.0; ZEAMX rating (ZEAMX (Corn, Field); 0.2500 kg/ha): 3.0; CYPIR herbicidal effect rating (CYPIR (Rice Flatsedge); 0.0313 kg/ha): 0.0; CYPIR herbicidal effect rating (CYPIR (Rice Flatsedge); 0.0625 kg/ha): 0.0; CYPIR herbicidal effect rating (CYPIR (Rice Flatsedge); 0.1250 kg/ha): 3.0; CYPIR herbicidal effect rating (CYPIR (Rice Flatsedge); 0.2500 kg/ha): 3.0; CHEAL herbicidal rating ([2]; rate 0.0158 kg/ha): 7.0; CHEAL herbicidal rating ([2]; rate 0.0315 kg/ha): 9.0; CHEAL herbicidal rating ([2]; rate 0.0630 kg/ha): 9.0; GLXMAW herbicidal rating ([3]; rate 0.0158 kg/ha): 8.5; GLXMAW herbicidal rating ([3]; rate 0.0315 kg/ha): 9.0; GLXMAW herbicidal rating ([3]; rate 0.0630 kg/ha): 9.0; Herbicidal rating CYPSE (CYPSE (Flatsedge) [4]; Rate 0.0313 kg/ha): 0.0; Herbicidal rating CYPSE (CYPSE (Flatsedge) [4]; Rate 0.0625 kg/ha): 0.0; Herbicidal rating CYPSE (CYPSE (Flatsedge) [4]; Rate 0.1250 kg/ha): 2.0; Herbicidal rating CYPSE (CYPSE (Flatsedge) [4]; Rate 0.2500 kg/ha): 4.0; AMBEL herbicidal rating (AMBEL (Ragweed, Common); rate 0.0158 kg/ha): 9.0; AMBEL herbicidal rating (AMBEL (Ragweed, Common); rate 0.0315 kg/ha): 9.0; AMBEL herbicidal rating (AMBEL (Ragweed, Common); rate 0.0630 kg/ha): 9.0; ECHCG herbicidal rating (ECHCG (Barnyardgrass); rate 0.0158 kg/ha): 9.0; ECHCG herbicidal rating (ECHCG (Barnyardgrass); rate 0.0315 kg/ha): 9.0; ECHCG herbicidal rating (ECHCG (Barnyardgrass); rate 0.0630 kg/ha): 9.0; ORYSAT herbicidal rating (ORYSAT (Rice, Tebonnet); rate 0.0158 kg/ha): 3.0; ORYSAT herbicidal rating (ORYSAT (Rice, Tebonnet); rate 0.0315 kg/ha): 3.0; ORYSAT herbicidal rating (ORYSAT (Rice, Tebonnet); rate 0.0630 kg/ha): 8.5; GALAP herbicidal rating (GALAP (Galium) [5]; rate 0.0158 kg/ha): 4.0; GALAP herbicidal rating (GALAP (Galium) [5]; rate 0.0315 kg/ha): 9.0; GALAP herbicidal rating (GALAP (Galium) [5]; rate 0.0630 kg/ha): 9.0; GALAP rating (GALAP (Galium) [6]; 0.0156 kg/ha): 0.0; GALAP rating (GALAP (Galium) [6]; 0.0313 kg/ha): 0.0; GALAP rating (GALAP (Galium) [6]; 0.0625 kg/ha): 0.0; GALAP rating (GALAP (Galium) [6]; 0.1250 kg/ha): 9.0; GALAP rating (GALAP (Galium) [6]; 0.2500 kg/ha): 9.0; CYPSE herbicidal effect rating (CYPSE (Flatsedge) [7]; 0.0313 kg/ha): 0.0; CYPSE herbicidal effect rating (CYPSE (Flatsedge) [7]; 0.0625 kg/ha): 0.0; CYPSE herbicidal effect rating (CYPSE (Flatsedge) [7]; 0.1250 kg/ha): 2.0; CYPSE herbicidal effect rating (CYPSE (Flatsedge) [7]; 0.2500 kg/ha): 4.0; CASOB herbicidal rating (CASOB (Sicklepod) [8]; rate 0.0158 kg/ha): 9.0; CASOB herbicidal rating (CASOB (Sicklepod) [8]; rate 0.0315 kg/ha): 9.0; CASOB herbicidal rating (CASOB (Sicklepod) [8]; rate 0.0630 kg/ha): 9.0; SAGPY herbicidal effect rating ([9]; 0.0313 kg/ha): 4.0; SAGPY herbicidal effect rating ([9]; 0.0625 kg/ha): 4.0; SAGPY herbicidal effect rating ([9]; 0.1250 kg/ha): 4.0; SAGPY herbicidal effect rating ([9]; 0.2500 kg/ha): 7.0; SETVI herbicidal rating (SETVI (Foxtail, Green); rate 0.0158 kg/ha): 9.0; SETVI herbicidal rating (SETVI (Foxtail, Green); rate 0.0315 kg/ha): 9.0; SETVI herbicidal rating (SETVI (Foxtail, Green); rate 0.0630 kg/ha): 9.0
